{"source": "patent US7282589B2", "about": "“Acid addition salt of optically active piperidine compound and process for preparing the same” (UBE Industries, Ltd., priority 1996, dated 2007)", "key": {"[1]": {"assay": "Stability test (40° C. and 75% relative humidity, one month)", "format": "physicochemical", "conditions": "for physicochemical stability (conclusion in words): from the test results of Table 4", "procedure": "After pulverizing the above-mentioned respective compounds, powder passed through a 500 μm sieve was made to be a test sample. Respective samples were divided and placed in glass Petri dishes and preserved at 40° C. and 75% relative humidity. One month later, the samples were taken out, and a weight of contained analogues and a content of (R)-isomer by racemization were measured and compared with those at the beginning of the test.\nThe sample was dissolved in a mobile phase and the solution was adjusted so as to contain about 0.1% of the sample per ml. With regard to 25 μl of the sample solution, percentages of the respective peak area were measured by a liquid chromatography using an automatic integration method.\nAbout 5 mg of the sample was dissolved in the mobile phase and the solution was adjusted so as to contain about 0.1% of the sample per ml. With regard to 1.5 μl of the sample solution, percentages of the respective peak area were measured by a liquid chromatography using an automatic integration method, and an amount of the (R)-isomer (%) was calculated by the following equation.\n[formula] • Q^S: percentage of peak area of (S)-isomer • Q^R: percentage of peak area of (R)-isomer Operation Conditions"}, "[2]": {"assay": "Experiment 1: crystallization of acid addition salts of (S)-piperidine compound (I)", "format": "physicochemical", "procedure": "(S)-Piperidine compound of the formula (I) was dissolved in an organic solvent, and after adding an acid shown in Table 3 to make a uniform solution, the mixture was allowed to stand. When no precipitate is obtained, after the solvent was removed, a less polar solvent was added to the residue and the mixture was allowed to stand again. Except for the case where the acid addition salt is oily or syrupy, the obtained solid material was collected by filtration and dried under reduced pressure."}, "[3]": {"assay": "Pharmacological effects of the metabolite compared with the (S)-ester"}, "histamine-induced death": {"test_system": "histamine-induced death", "assay": "Protective effects on histamine-induced death", "format": "in vivo, Hartley male guinea pigs", "conditions": "for Survival ratio (%): p.o., 2 hours before 1.25 mg/kg histamine hydrochloride i.v.; for ED50: Cavia porcellus, po, obtained from the dose-response curve of Table 1", "procedure": "By using Hartley male guinea pigs with a body weight of 250 to 550 g, protective effects on histamine-induced death were tested according to the method of Lands et al. (Journal of Pharmacological Experimental Therapy, vol. 95, p. 45, 1949 (A. M. Lands, J. O. Hoppe, O. H. Siegmund, and F. F. Luduena, J. Pharmacol. Exp. Ther., 95, 45 (1949))). Test animals were fasted overnight (about 14 hours), and then 5 ml/kg of a test substance was orally administrated. Two hours after administration of the test substance, 1.25 mg/kg of histamine hydrochloride was intravenously administrated to induce histamine shock. After induction, symptom of the test animals was observed and the histamine-shock appearing time was measured, and termination of respiration or restoration was also observed."}, "[4]": {"test_system": "7 days homologous PCA reaction", "assay": "Inhibitory effect on 7 days homologous PCA reaction", "format": "in vivo, Hartley male guinea pigs", "conditions": "for Inhibitory ratio (%): p.o., 2 hours before antigen", "procedure": "By using Hartley male guinea pigs with a body weight of 250 to 550 g, inhibitory effect on PCA reaction was tested according to the method of Levine et al. (Journal of Immunology, vol. 106, p. 29, 1971 (B. B. Levine, H. Chang, Jr., and N. M. Vaz, J. Immunol. 106, 29 (1971))). 0.05 ml of guinea pig anti-BPO.BGG-IgE serum diluted 32-fold with a physiological saline was hypodermically administrated to the guinea pig through two points of right and left sandwiching the median line of the back which had been shaved one day before.\nAfter 7 days, 1 ml of a 1% Evans Blue physiological saline solution containing 500 μg of benzylpenicilloyl bovine serum albumin (BPO.BSA) was intravenously administrated to induce a PCA reaction. Thirty minutes later, exsanguination was carried out, and the skin was peeled off and the amount of the leaked dye was measured according to the method of Katayama et al. (Microbiological Immunology, vol. 22, p. 89, 1978 (S. Katayama, H. Shinoya and S. Ohtake, Microbiol. Immunol., 22, 89 (1978))). The test animals were fasted overnight (about 16 hours) and the test substances were orally administrated 2 hours before the administration of the antigen."}, "[5]": {"conditions": "1 month later, 40° C. and 75% relative humidity"}}, "note": "Where two headings read alike, the source gives them in different places."}
{"smiles": "O=C(O)CCCN1CCC(O[C@@H](c2ccc(Cl)cc2)c2ccccn2)CC1.O=C(O)c1ccccc1", "note": "[Benzoic acid salt, (S)-4-[4-[(4-chlorophenyl)(2-pyridyl)-methoxy]piperidino]butanoic acid monobenzoic acid salt]", "values": [{"measurement": "Amount of moisture absorption", "setting": "[1]; [5]", "value": 0.05, "unit": "%"}, {"measurement": "Content of (R)-isomer", "setting": "[1]; [5]", "value": 0.40, "unit": "%"}, {"measurement": "Content of analogue substance", "setting": "[1]; [5]", "value": 1.20, "unit": "%"}, {"measurement": "Content of (R)-isomer", "setting": "[1]; Beginning", "value": 0.37, "unit": "%"}, {"measurement": "Content of analogue substance", "setting": "[1]; Beginning", "value": 1.20, "unit": "%"}, {"measurement": "physicochemical stability (conclusion in words)", "setting": "[1]", "value": "excellent physicochemical stabilities"}, {"measurement": "Characteristics of acid addition salt", "setting": "[2]", "value": "non-hygroscopic crystals"}]}
{"smiles": "O=C(O)CCCN1CCC(O[C@@H](c2ccc(Cl)cc2)c2ccccn2)CC1", "note": "[Example 1, (S)-4-[4-[(4-chlorophenyl)(2-pyridyl)-methoxy]piperidino]butanoic acid]", "values": [{"measurement": "pharmacological effects compared with the (S)-ester", "setting": "[3]", "value": "substantially shows the same pharmacological effects as the (S)-ester"}]}
{"smiles": "C[C@H](O)C(=O)O", "note": "[L-Lactic acid]", "values": [{"measurement": "Characteristics of acid addition salt", "setting": "[2]; acid molar ratio 1", "value": "Oily product"}]}
{"smiles": "CCOC(=O)CCCN1CCC(O[C@H](c2ccc(Cl)cc2)c2ccccn2)CC1.O=C(O)/C=C/C(=O)O", "note": "[(R)-ester, ethyl (R)-4-[4-[(4-chlorophenyl) (2-pyridyl)methoxy]piperidino]butanoate fumaric acid salt]", "values": [{"measurement": "Survival ratio (%)", "setting": "histamine-induced death; 0.3 mg/kg", "value": 0, "unit": "%"}, {"measurement": "Survival ratio (%)", "setting": "histamine-induced death; 0.6 mg/kg", "value": 0, "unit": "%"}, {"measurement": "Survival ratio (%)", "setting": "histamine-induced death; 1.0 mg/kg", "value": 50.0, "unit": "%"}, {"measurement": "Survival ratio (%)", "setting": "histamine-induced death; 3.0 mg/kg", "value": 62.5, "unit": "%"}, {"measurement": "Survival ratio (%)", "setting": "histamine-induced death; 10.0 mg/kg", "value": 100, "unit": "%"}, {"measurement": "ED50", "setting": "histamine-induced death", "value": 1, "unit": "mg/kg"}, {"measurement": "Inhibitory ratio (%)", "setting": "[4]; 0.3 mg/kg", "value": "−3.1", "unit": "%"}, {"measurement": "Inhibitory ratio (%)", "setting": "[4]; 1.0 mg/kg", "value": 13.6, "unit": "%"}, {"measurement": "Inhibitory ratio (%)", "setting": "[4]; 3.0 mg/kg", "value": 45.8, "unit": "%"}, {"measurement": "Inhibitory ratio (%)", "setting": "[4]; 10.0 mg/kg", "value": 59.5, "unit": "%"}]}
{"smiles": "CCOC(=O)CCCN1CCC(O[C@@H](c2ccc(Cl)cc2)c2ccccn2)CC1.O=C(O)/C=C/C(=O)O", "note": "[(S)-ester, ethyl (S)-4-[4-[(4-chlorophenyl)(2-pyridyl)methoxy]piperidino]butanoate fumaric acid salt]", "values": [{"measurement": "Survival ratio (%)", "setting": "histamine-induced death; 0.01 mg/kg", "value": 0, "unit": "%"}, {"measurement": "Survival ratio (%)", "setting": "histamine-induced death; 0.02 mg/kg", "value": 42.9, "unit": "%"}, {"measurement": "Survival ratio (%)", "setting": "histamine-induced death; 0.03 mg/kg", "value": 62.5, "unit": "%"}, {"measurement": "Survival ratio (%)", "setting": "histamine-induced death; 0.06 mg/kg", "value": 100, "unit": "%"}, {"measurement": "Survival ratio (%)", "setting": "histamine-induced death; 0.1 mg/kg", "value": 100, "unit": "%"}, {"measurement": "ED50", "setting": "histamine-induced death", "value": 0.023, "unit": "mg/kg"}, {"measurement": "potency relative to the (R)-ester", "setting": "histamine-induced death; ratio of ED50 values", "value": "about 43 fold"}, {"measurement": "Inhibitory ratio (%)", "setting": "[4]; 0.01 mg/kg", "value": 37.3, "unit": "%"}, {"measurement": "Inhibitory ratio (%)", "setting": "[4]; 0.02 mg/kg", "value": 46.3, "unit": "%"}, {"measurement": "Inhibitory ratio (%)", "setting": "[4]; 0.03 mg/kg", "value": 56.9, "unit": "%"}, {"measurement": "Inhibitory ratio (%)", "setting": "[4]; 0.06 mg/kg", "value": 63.4, "unit": "%"}, {"measurement": "Inhibitory ratio (%)", "setting": "[4]; 0.1 mg/kg", "value": 58.8, "unit": "%"}, {"measurement": "potency relative to the (R)-ester", "setting": "[4]; compared at the dose which inhibits 50% of the maximum value (i.e., 35%)", "value": "≥ 100", "unit": "fold"}, {"measurement": "Amount of moisture absorption", "setting": "[1]; [5]", "value": 0.45, "unit": "%"}, {"measurement": "Content of (R)-isomer", "setting": "[1]; [5]", "value": 1.15, "unit": "%"}, {"measurement": "Content of analogue substance", "setting": "[1]; [5]", "value": 2.65, "unit": "%"}, {"measurement": "Content of (R)-isomer", "setting": "[1]; Beginning", "value": 0.87, "unit": "%"}, {"measurement": "Content of analogue substance", "setting": "[1]; Beginning", "value": 1.72, "unit": "%"}, {"measurement": "hygroscopicity (in words)", "setting": "[1]; as shown in the stability test results (Table 4)", "value": "hygroscopic"}, {"measurement": "physicochemical stability (conclusion in words)", "setting": "[1]", "value": "physicochemically unstable"}]}
{"smiles": "O=C(O)CCCN1CCC(O[C@@H](c2ccc(Cl)cc2)c2ccccn2)CC1.O=S(=O)(O)c1ccccc1", "note": "[Benzenesulfonic acid salt, (S)-4-[4-[(4-chlorophenyl)(2-pyridyl)-methoxy]piperidino]butanoic acid monobenzenesulfonic acid salt]", "values": [{"measurement": "Amount of moisture absorption", "setting": "[1]; [5]", "value": 0.18, "unit": "%"}, {"measurement": "Content of (R)-isomer", "setting": "[1]; [5]", "value": 0.39, "unit": "%"}, {"measurement": "Content of analogue substance", "setting": "[1]; [5]", "value": 0.16, "unit": "%"}, {"measurement": "Content of (R)-isomer", "setting": "[1]; Beginning", "value": 0.37, "unit": "%"}, {"measurement": "Content of analogue substance", "setting": "[1]; Beginning", "value": 0.15, "unit": "%"}, {"measurement": "physicochemical stability (conclusion in words)", "setting": "[1]", "value": "excellent physicochemical stabilities"}, {"measurement": "Characteristics of acid addition salt", "setting": "[2]", "value": "non-hygroscopic crystals"}]}
